Assay results as given in PMC6152393, “Rational Design of Cyclic Antimicrobial Peptides Based on BPC194 and BPC198” (Molecules : A Journal of Synthetic Chemistry and Natural …, 2017).
Peptide text beside a SMILES is read from it.

How the values were obtained:
Assay type in all cases: cell-based
[1] = tested on: Xanthomonas axonopodis pv. vesicatoria 2133-2; details: Trypticase Soy Broth, 25 °C, 48 h, OD 600 nm (Bioscreen C), peptides at 3.1, 6.2, 12.5, 25, 50 μM, three replicates, experiment repeated twice, MIC = lowest concentration with no growth
Procedure: (§1) The antibacterial activity of the designed cyclic peptides was assayed against P. syringae pv. syringae, X. axonopodis pv. vesicatoria, and E. amylovora at 3.1, 6.2, 12.5, 25, and 50 μM. Peptides BPC194 and BPC198 were also included in these assays for comparison purposes.
(§2) The following plant pathogenic bacterial strains were used: Erwinia amylovora PMV6076 (Institut National de la Recherche Agronomique, Angers, France); Pseudomonas syringae pv. syringae EPS94 (Institut de Tecnologia Agroalimentària, Universitat de Girona, Spain); and Xanthomonas axonopodis pv. vesicatoria 2133-2 (Instituto Valenciano de Investigaciones Agrarias, Valencia, Spain). All bacteria were stored in Luria Bertani (LB) broth supplemented with glycerol (20%) and maintained at –80 °C. E. amylovora and P. syringae pv. syringae were scrapped from LB agar after growing for 24 h and X. axonopodis pv. vesicatoria after growing for 48 h at 25 °C. The cell material was suspended in sterile water to obtain a suspension of 10^8 CFU mL^−1.
(§3) Lyophilized peptides were solubilized in sterile Milli-Q water to a final concentration of 1000 μM and sterilized through a 0.22-μm pore filter. For MIC assessment, dilutions of the synthetic peptides were made to obtain a final concentration of 500, 250, 125, 62.5, 31.2, and 15.6 μM. Twenty microlitres of each dilution were mixed in a microtiter plate well with 20 μL of the corresponding suspension of the bacterial indicator and 160 μL of Trypticase Soy Broth (TSB) (BioMèrieux, Craponne, France) to a total volume of 200 μL. Three replicates for each strain, peptide, and concentration were used. Positive controls contained water instead of peptide and negative controls contained peptides without bacterial suspension. Bacterial growth was automatically determined by an optical density measurement at 600 nm (Bioscreen C, Labsystem, Helsinki, Finland). Microplates were incubated at 25 °C with 20 s shaking before hourly absorbance measurements for 48 h. Each experiment was repeated twice. The MIC was taken as the lowest peptide concentration with no growth at the end of the experiment. The inhibition of growth (I) was calculated as a percentage of the positive control using the equation: I = 100 × [(AC − AS)/AC], where AC is the area under the curve of the control, and AS is the area under the curve of a given peptide concentration.

[2] = tested on: Pseudomonas syringae pv. syringae EPS94; details: 48 h
Procedure: as §1, §2, §3

[3] = tested on: Erwinia amylovora PMV6076; experiment: Antibacterial activity (MIC), growth inhibition in microtiter plates; details: Trypticase Soy Broth, 25 °C, 48 h, OD 600 nm (Bioscreen C), peptides at 3.1, 6.2, 12.5, 25, 50 μM, three replicates, experiment repeated twice, MIC = lowest concentration with no growth
Procedure: as §1, §2, §3

Row | Structure (SMILES) | MIC Intervals, Xav [1] [µM] | MIC Intervals, Pss [2] [µM] | MIC Intervals, Ea [3] [µM]
1 | CC(C)C[C@@H]1NC(=O)[C@H](CCCCN)NC(=O)[C@H](CCCCN)NC(=O)[C@H](CCCCN)NC(=O)[C@H](CCCCN)NC(=O)[C@H](CC(C)C)NC(=O)[C@H](CCCCN)NC(=O)[C@H](Cc2ccccc2)NC(=O)[C@H](CCCCN)NC(=O)[C@H](CCC(N)=O)NC1=O [BPC922] (cyclo(FKLKKKKLQK)) | 12.5 to 25 | 12.5 to 25 | >50
2 | CC(C)C[C@@H]1NC(=O)[C@H](CCCCN)NC(=O)[C@H](CCCCN)NC(=O)[C@H](CCCCN)NC(=O)[C@H](Cc2ccccc2)NC(=O)[C@H](CCCCN)NC(=O)[C@H](CCC(N)=O)NC(=O)[C@H](CC(C)C)NC(=O)[C@H](CCCCN)NC(=O)[C@H](CCCCN)NC1=O [BPC918] (cyclo(FKKKLKKLQK)) | 1.6 to 3.1 |  | 12.5 to 25
3 | CC(C)C[C@@H]1NC(=O)[C@H](CCCCN)NC(=O)[C@H](CCCCN)NC(=O)[C@H](CCCCN)NC(=O)[C@H](CCCCN)NC(=O)[C@H](Cc2ccccc2)NC(=O)[C@H](CCCCN)NC(=O)[C@H](CC(C)C)NC(=O)[C@H](CCCCN)NC(=O)[C@H](CCC(N)=O)NC1=O [BPC916] (cyclo(FKKKKLQKLK)) | 12.5 to 25 | 6.2 to 12.5 | >50
4 | CC(C)C[C@@H]1NC(=O)[C@H](CCCCN)NC(=O)[C@H](CCCCN)NC(=O)[C@H](CCCCN)NC(=O)[C@H](Cc2ccccc2)NC(=O)[C@H](CCCCN)NC(=O)[C@H](CCC(N)=O)NC(=O)[C@H](CCCCN)NC(=O)[C@H](CCCCN)NC(=O)[C@H](CC(C)C)NC1=O [BPC920] (cyclo(FKKKLLKKQK)) | 25 to 50 | 12.5 to 25 | >50
5 | CC(C)C[C@@H]1NC(=O)[C@H](CCC(N)=O)NC(=O)[C@H](Cc2ccccc2)NC(=O)[C@H](CC(C)C)NC(=O)[C@H](CCCCN)NC(=O)[C@H](CCCCN)NC(=O)[C@H](CCCCN)NC(=O)[C@H](CCCCN)NC(=O)[C@H](CCCCN)NC(=O)[C@H](CCCCN)NC1=O [BPC486] (cyclo(FQLKKKKKKL)) |  | 12.5 to 25 | >50
6 | CC(C)C[C@@H]1NC(=O)[C@H](CCCCN)NC(=O)[C@H](CCC(N)=O)NC(=O)[C@H](Cc2ccccc2)NC(=O)[C@H](CCCCN)NC(=O)[C@H](CC(C)C)NC(=O)[C@H](CCCCN)NC(=O)[C@H](CCCCN)NC(=O)[C@H](CCCCN)NC(=O)[C@H](CCCCN)NC1=O [BPC488] (cyclo(FQKLKKKKLK)) | 6.2 to 12.5 |  | >50
7 | CC(C)C[C@@H]1NC(=O)[C@H](CCCCN)NC(=O)[C@H](CCCCN)NC(=O)[C@H](CCCCN)NC(=O)[C@H](CCC(N)=O)NC(=O)[C@H](Cc2ccccc2)NC(=O)[C@H](CCCCN)NC(=O)[C@H](CCCCN)NC(=O)[C@H](CCCCN)NC(=O)[C@H](CC(C)C)NC1=O [BPC492] (cyclo(FQKKKLLKKK)) | 12.5 to 25 | 12.5 to 25 | >50
8 | CC(C)C[C@@H]1NC(=O)[C@H](CCCCN)NC(=O)[C@H](CCCCN)NC(=O)[C@H](CCC(N)=O)NC(=O)[C@H](CC(C)C)NC(=O)[C@H](CCCCN)NC(=O)[C@H](CCCCN)NC(=O)[C@H](Cc2ccccc2)NC(=O)[C@H](CCCCN)NC(=O)[C@H](CCCCN)NC1=O [BPC194, c(KKLKKFKKLQ)] (cyclo(FKKLQKKLKK)) | 3.1 to 6.2 | 3.1 to 6.2 | 6.2 to 12.5
9 | CC(C)C[C@@H]1NC(=O)[C@H](CCCCN)NC(=O)[C@H](CCC(N)=O)NC(=O)[C@H](CC(C)C)NC(=O)[C@H](CCCCN)NC(=O)[C@H](Cc2ccccc2)NC(=O)[C@H](CCCCN)NC(=O)[C@H](CCCCN)NC(=O)[C@H](CCCCN)NC(=O)[C@H](CCCCN)NC1=O [BPC482] (cyclo(FKLQKLKKKK)) | 6.2 to 12.5 |  | >50
10 | CC(C)C[C@@H]1NC(=O)[C@H](CCC(N)=O)NC(=O)[C@H](CC(C)C)NC(=O)[C@H](CCCCN)NC(=O)[C@H](CCCCN)NC(=O)[C@H](CCCCN)NC(=O)[C@H](CCCCN)NC(=O)[C@H](Cc2ccccc2)NC(=O)[C@H](CCCCN)NC(=O)[C@H](CCCCN)NC1=O [BPC496] (cyclo(FKKKKLQLKK)) | 6.2 to 12.5 | 6.2 to 12.5 | >50
11 | CC(C)C[C@@H]1NC(=O)[C@H](CCCCN)NC(=O)[C@H](CCCCN)NC(=O)[C@H](Cc2ccccc2)NC(=O)[C@H](CCCCN)NC(=O)[C@H](CCCCN)NC(=O)[C@H](CCCCN)NC(=O)[C@H](CC(C)C)NC(=O)[C@H](CCCCN)NC(=O)[C@H](CCC(N)=O)NC1=O [BPC198, c(KLKKKFKKLQ)] (cyclo(FKKLQKLKKK)) | 3.1 to 6.2 | 3.1 to 6.2 | 12.5 to 25
12 | CC(C)C[C@@H]1NC(=O)[C@H](CCCCN)NC(=O)[C@H](CCC(N)=O)NC(=O)[C@H](CCCCN)NC(=O)[C@H](CCCCN)NC(=O)[C@H](CC(C)C)NC(=O)[C@H](Cc2ccccc2)NC(=O)[C@H](CCCCN)NC(=O)[C@H](CCCCN)NC(=O)[C@H](CCCCN)NC1=O [BPC914] (cyclo(FLKKQKLKKK)) | 12.5 to 25 | 12.5 to 25 | >50
13 | CC(C)C[C@@H]1NC(=O)[C@H](CCCCN)NC(=O)[C@H](CCCCN)NC(=O)[C@H](CCCCN)NC(=O)[C@H](Cc2ccccc2)NC(=O)[C@H](CC(C)C)NC(=O)[C@H](CCCCN)NC(=O)[C@H](CCCCN)NC(=O)[C@H](CCCCN)NC(=O)[C@H](CCC(N)=O)NC1=O [BPC480] (cyclo(FKKKLQKKKL)) | 12.5 to 25 | 12.5 to 25 | >50
14 | CC(C)C[C@@H]1NC(=O)[C@H](CCCCN)NC(=O)[C@H](CCCCN)NC(=O)[C@H](CCCCN)NC(=O)[C@H](CC(C)C)NC(=O)[C@H](CCCCN)NC(=O)[C@H](CCC(N)=O)NC(=O)[C@H](Cc2ccccc2)NC(=O)[C@H](CCCCN)NC(=O)[C@H](CCCCN)NC1=O [BPC924] (cyclo(FQKLKKKLKK)) | 1.6 to 3.1 |  | 12.5 to 25
15 | CC(C)C[C@@H]1NC(=O)[C@H](CCCCN)NC(=O)[C@H](CCCCN)NC(=O)[C@H](CCC(N)=O)NC(=O)[C@H](Cc2ccccc2)NC(=O)[C@H](CCCCN)NC(=O)[C@H](CCCCN)NC(=O)[C@H](CC(C)C)NC(=O)[C@H](CCCCN)NC(=O)[C@H](CCCCN)NC1=O [BPC490] (cyclo(FQKKLKKLKK)) | 3.1 to 6.2 |  | 12.5 to 25
16 | CC(C)C[C@@H]1NC(=O)[C@H](CCC(N)=O)NC(=O)[C@H](CCCCN)NC(=O)[C@H](CCCCN)NC(=O)[C@H](CC(C)C)NC(=O)[C@H](Cc2ccccc2)NC(=O)[C@H](CCCCN)NC(=O)[C@H](CCCCN)NC(=O)[C@H](CCCCN)NC(=O)[C@H](CCCCN)NC1=O [BPC494] (cyclo(FLKKQLKKKK)) | 6.2 to 12.5 | 6.2 to 12.5 | >50
17 | CC(C)C[C@@H]1NC(=O)[C@H](CCC(N)=O)NC(=O)[C@H](CC(C)C)NC(=O)[C@H](Cc2ccccc2)NC(=O)[C@H](CCCCN)NC(=O)[C@H](CCCCN)NC(=O)[C@H](CCCCN)NC(=O)[C@H](CCCCN)NC(=O)[C@H](CCCCN)NC(=O)[C@H](CCCCN)NC1=O [BPC484] (cyclo(FLQLKKKKKK)) | 25 to 50 | 12.5 to 25 | >50
